Experimental data from ChEMBL document CHEMBL1148982, “Novel cytotoxic thiodiketopiperazine derivatives from a Tilachlidium sp” (2004).

The compounds below were run on P388 (assay: Cytotoxicity against mouse P388 cells after 1 to 11 days by MTT assay). Details: read-out: ID50 (the source's name).
Type: functional

Compared with `CN1C(=O)[C@]23SS[C@]1(CO)C(=O)N2[C@H]1Nc2ccccc2[C@@]1(c1c[nH]c2ccccc12)[C@@H]3O` [T988 C], `CN1C(=O)[C@]23SSS[C@]1(CO)C(=O)N2[C@H]1Nc2ccccc2[C@@]1(c1c[nH]c2ccccc12)[C@@H]3O` is 2.2-fold lower in IC50: 560 nM for the first, 250 nM for the second.

`CS[C@@]1(CO)C(=O)N2[C@H]3Nc4ccccc4[C@@]3(c3c[nH]c4ccccc34)[C@H](O)[C@]2(SC)C(=O)N1C` [T988 B] was tested, and the IC50 was 2180 nM.
